Measurements from the NIST ThermoML archive (doi:10.1016/j.jct.2004.10.011).
± gives the expanded uncertainty stated by the source.

Conditions: Liquid, Vibrating tube method

CCC(=O)c1ccccc1 [ethyl phenyl ketone]
mass density [kg/m3]
Conditions	298.15 K	308.15 K	318.15 K	328.15 K
100 kPa	1005.3 ± 0.56	996.8 ± 0.56	988.3 ± 0.56	979.6 ± 0.56
2130 kPa	1006.4 ± 0.56	998 ± 0.56	989.6 ± 0.55	981.1 ± 0.55
4150 kPa	1007.5 ± 0.56	999.2 ± 0.56	990.9 ± 0.55	982.4 ± 0.55
6180 kPa	1008.7 ± 0.56	1000.4 ± 0.56	992.1 ± 0.55	983.7 ± 0.55
8210 kPa	1009.8 ± 0.56	1001.6 ± 0.56	993.3 ± 0.56	985 ± 0.55
10230 kPa	1010.9 ± 0.56	1002.8 ± 0.56	994.6 ± 0.56	986.2 ± 0.55
11250 kPa	1011.5 ± 0.56	1003.4 ± 0.56	995.2 ± 0.55	986.9 ± 0.55
12260 kPa	1012.1 ± 0.56	1003.9 ± 0.56	995.8 ± 0.56	987.5 ± 0.55
14290 kPa	1013.2 ± 0.56	1005.1 ± 0.56	997 ± 0.55	988.7 ± 0.55
16310 kPa	1014.3 ± 0.56	1006.2 ± 0.56	998.1 ± 0.56	990 ± 0.55
18340 kPa	1015.3 ± 0.56	1007.3 ± 0.56	999.3 ± 0.56	991.2 ± 0.55
20370 kPa	1016.4 ± 0.56	1008.4 ± 0.56	1000.4 ± 0.56	992.3 ± 0.55
22390 kPa	1017.5 ± 0.56	1009.5 ± 0.56	1001.6 ± 0.56	993.5 ± 0.55
24420 kPa	1018.5 ± 0.56	1010.6 ± 0.56	1002.7 ± 0.56	994.7 ± 0.55
26450 kPa	1019.5 ± 0.56	1011.7 ± 0.56	1003.8 ± 0.56	995.9 ± 0.56
28470 kPa	1020.5 ± 0.56	1012.8 ± 0.56	1004.9 ± 0.56	997.1 ± 0.55
29490 kPa	1021 ± 0.57	1013.2 ± 0.56	1005.5 ± 0.56	997.6 ± 0.55
30500 kPa	1021.6 ± 0.57	1013.8 ± 0.56	1006 ± 0.56	998.2 ± 0.55
32530 kPa	1022.5 ± 0.57	1014.8 ± 0.56	1007.1 ± 0.56	999.3 ± 0.55
34550 kPa	1023.5 ± 0.57	1015.8 ± 0.56	1008.2 ± 0.56	1000.4 ± 0.56
36580 kPa	1024.5 ± 0.57	1016.8 ± 0.56	1009.2 ± 0.56	1001.5 ± 0.56
38600 kPa	1025.5 ± 0.57	1017.9 ± 0.56	1010.3 ± 0.56	1002.6 ± 0.56
39620 kPa	1025.9 ± 0.57	1018.3 ± 0.56	1010.8 ± 0.56	1003.2 ± 0.56

Cc1ccccc1 [toluene]
mass density [kg/m3]
Conditions	298.15 K	308.15 K	318.15 K	328.15 K
100 kPa	862.1 ± 0.26	853 ± 0.27	843.8 ± 0.29	834.5 ± 0.3
2130 kPa	863.6 ± 0.27	854.5 ± 0.27	845.6 ± 0.28	836.5 ± 0.29
4150 kPa	865.2 ± 0.27	856.2 ± 0.28	847.3 ± 0.29	838.3 ± 0.29
6180 kPa	866.7 ± 0.27	857.8 ± 0.28	849 ± 0.29	840.1 ± 0.29
8210 kPa	868.2 ± 0.27	859.3 ± 0.28	850.6 ± 0.29	841.8 ± 0.3
10230 kPa	869.6 ± 0.28	860.9 ± 0.29	852.3 ± 0.29	843.5 ± 0.3
11250 kPa	870.4 ± 0.28	861.7 ± 0.29	853.1 ± 0.29	844.4 ± 0.3
12260 kPa	871.1 ± 0.28	862.4 ± 0.29	853.9 ± 0.29	845.2 ± 0.3
14290 kPa	872.5 ± 0.28	863.9 ± 0.29	855.4 ± 0.3	846.9 ± 0.31
16310 kPa	873.9 ± 0.29	865.4 ± 0.29	857 ± 0.3	848.6 ± 0.31
18340 kPa	875.3 ± 0.29	866.8 ± 0.3	858.5 ± 0.3	850.1 ± 0.31
20370 kPa	876.7 ± 0.29	868.2 ± 0.3	860 ± 0.31	851.7 ± 0.32
22390 kPa	878 ± 0.29	869.6 ± 0.3	861.5 ± 0.31	853.3 ± 0.32
24420 kPa	879.3 ± 0.3	871 ± 0.31	862.9 ± 0.32	854.8 ± 0.33
26450 kPa	880.6 ± 0.3	872.4 ± 0.31	864.4 ± 0.32	856.3 ± 0.33
28470 kPa	881.9 ± 0.31	873.8 ± 0.32	865.8 ± 0.33	857.8 ± 0.34
29490 kPa	882.5 ± 0.31	874.4 ± 0.31	866.5 ± 0.33	858.5 ± 0.34
30500 kPa	883.2 ± 0.31	875 ± 0.32	867.2 ± 0.33	859.3 ± 0.34
32530 kPa	884.4 ± 0.31	876.3 ± 0.32	868.5 ± 0.33	860.7 ± 0.34
34550 kPa	885.6 ± 0.32	877.6 ± 0.33	869.9 ± 0.34	862.1 ± 0.35
36580 kPa	886.8 ± 0.32	878.9 ± 0.33	871.2 ± 0.34	863.5 ± 0.35
38600 kPa	888 ± 0.32	880.1 ± 0.33	872.5 ± 0.35	864.9 ± 0.36
39620 kPa	888.6 ± 0.33	880.7 ± 0.35	873.2 ± 0.35	865.5 ± 0.35
